Measurements as given in US12568972B2, “Pyridazinol compounds and derivatives, preparation methods, herbicidal compositions and applications thereof” (Qingdao Kingagroot Chemical Compound Co., Ltd., priority 2018, dated 2026).

Assays:
Experiment in all cases: Post-emergence test, weed control effect
Assay type in all cases: in vivo
Settings in all cases: after 3 weeks
Veronica polita = tested on: Veronica polita
Source text: (§1) The activity level standard of harmful plant destruction (i.e. growth inhibition rate) is as follows: • Level 10: completely dead; • Level 9: above 90% growth inhibition rate; • Level 8: above 80% growth inhibition rate; • Level 7: above 70% growth inhibition rate; • Level 6: above 60% growth inhibition rate; • Level 5: above 50% growth inhibition rate; • Level 4: above 40% growth inhibition rate; • Level 3: above 30% growth inhibition rate; • Level 2: above 20% growth inhibition rate; • Level 1: below 20% growth inhibition rate; • Level 0: no effect.
(§2) The above described growth inhibition rates are fresh weight inhibition rates.
(§3) Experiment of post-emergence test: monocotyledonous and dicotyledonous weed seeds as well as main crop seeds (i.e., wheat, corn, rice, soybean, cotton, oilseed rape, millet and sorghum) were put into a plastic pot loaded with soil, then covered with 0.5-2 cm of soil, and the seeds were allowed to grow in good greenhouse environment. The test plants were treated at 2-3 leaf stage 2-3 weeks after sowing. The test compounds of the invention were dissolved in acetone respectively, then added with Tween-80 and diluted by a certain amount of water to give solutions with certain concentrations, and added with 80% vegetable oil methyl ester synergist at 1500 g/ha. The solution was sprayed to the plants with a sprayer. The plants were cultured for 3 weeks in the greenhouse.

Chenopodiaceae = tested on: Chenopodiaceae
Source text: as §1, §2, §3

Rorippa indica = tested on: Rorippa indica
Source text: as §1, §2, §3

Amaranthus retroflexus = tested on: Amaranthus retroflexus
Source text: as §1, §2, §3

O=Cc1ccc(-c2nnc(C(F)(F)F)cc2O)cc1F [Compound 65]
10: weed control effect (activity level), Veronica polita (Veronica polita; dose 1000 g/ha) | weed control effect (activity level), Chenopodiaceae (Chenopodiaceae; dose 1000 g/ha) | weed control effect (activity level), Rorippa indica (Rorippa indica; dose 1000 g/ha) | weed control effect (activity level), Amaranthus retroflexus (Amaranthus retroflexus; dose 1000 g/ha)

O=C(CC1CCCC1)Oc1cc(C(F)(F)F)nnc1-c1ccc(C(F)(F)F)cc1 [Compound 1-18]
10: weed control effect, Veronica polita (activity level) (Veronica polita; Dose 3000 g/ha) | weed control effect, Chenopodiaceae (activity level) (Chenopodiaceae; Dose 3000 g/ha) | weed control effect, Rorippa indica (activity level) (Rorippa indica; Dose 3000 g/ha) | weed control effect, Amaranthus retroflexus (activity level) (Amaranthus retroflexus; Dose 3000 g/ha)

CC(=O)n1nccc1-c1nnc(C(F)(F)F)cc1O [Compound 834]
10: weed control effect (activity level), Veronica polita (Veronica polita; Dose 3000 g/ha) | weed control effect (activity level), Chenopodiaceae (Chenopodiaceae; Dose 3000 g/ha) | weed control effect (activity level), Rorippa indica (Rorippa indica; Dose 3000 g/ha) | weed control effect (activity level), Amaranthus retroflexus (Amaranthus retroflexus; Dose 3000 g/ha)

Oc1cc(C(F)(F)F)nnc1-c1cnccc1I [Compound 972]
10: weed control effect (activity level), Veronica polita (Veronica polita; Dose 3000 g/ha) | weed control effect (activity level), Chenopodiaceae (Chenopodiaceae; Dose 3000 g/ha) | weed control effect (activity level), Rorippa indica (Rorippa indica; Dose 3000 g/ha) | weed control effect (activity level), Amaranthus retroflexus (Amaranthus retroflexus; Dose 3000 g/ha)

O=C(CCc1ccccc1)Oc1cc(C(F)(F)F)nnc1-c1ccc(F)c(F)c1 [Compound 1-98]
10: weed control effect, Veronica polita (activity level) (Veronica polita; Dose 3000 g/ha) | weed control effect, Chenopodiaceae (activity level) (Chenopodiaceae; Dose 3000 g/ha) | weed control effect, Rorippa indica (activity level) (Rorippa indica; Dose 3000 g/ha) | weed control effect, Amaranthus retroflexus (activity level) (Amaranthus retroflexus; Dose 3000 g/ha)

Cc1ccc(S(=O)(=O)Oc2cc(C(F)(F)F)nnc2-c2ccnc(F)c2)cc1 [Compound 1-126]
10: weed control effect, Veronica polita (activity level) (Veronica polita; Dose 3000 g/ha) | weed control effect, Chenopodiaceae (activity level) (Chenopodiaceae; Dose 3000 g/ha) | weed control effect, Rorippa indica (activity level) (Rorippa indica; Dose 3000 g/ha) | weed control effect, Amaranthus retroflexus (activity level) (Amaranthus retroflexus; Dose 3000 g/ha)

CCCCC(CC)OC(=O)Oc1cc(C(F)(F)F)nnc1-c1ccc(Br)c([N+](=O)[O-])c1 (centres unmarked) [Compound 1-36]
10: weed control effect, Veronica polita (activity level) (Veronica polita; Dose 3000 g/ha) | weed control effect, Chenopodiaceae (activity level) (Chenopodiaceae; Dose 3000 g/ha) | weed control effect, Rorippa indica (activity level) (Rorippa indica; Dose 3000 g/ha) | weed control effect, Amaranthus retroflexus (activity level) (Amaranthus retroflexus; Dose 3000 g/ha)

Cc1cc(C(=O)Oc2cc(C(F)(F)F)nnc2-c2ccc(F)c(F)c2)no1 [Compound 1-107]
10: weed control effect, Veronica polita (activity level) (Veronica polita; Dose 3000 g/ha) | weed control effect, Chenopodiaceae (activity level) (Chenopodiaceae; Dose 3000 g/ha) | weed control effect, Rorippa indica (activity level) (Rorippa indica; Dose 3000 g/ha) | weed control effect, Amaranthus retroflexus (activity level) (Amaranthus retroflexus; Dose 3000 g/ha)

CC(C)(C)CSC(=O)Oc1cc(C(F)(F)F)nnc1-c1cccc(Br)c1 [Compound 1-51]
10: weed control effect, Veronica polita (activity level) (Veronica polita; Dose 3000 g/ha) | weed control effect, Chenopodiaceae (activity level) (Chenopodiaceae; Dose 3000 g/ha) | weed control effect, Rorippa indica (activity level) (Rorippa indica; Dose 3000 g/ha) | weed control effect, Amaranthus retroflexus (activity level) (Amaranthus retroflexus; Dose 3000 g/ha)

CCOc1ccc(F)c(-c2nnc(C(F)(F)F)cc2O)c1F [Compound 81]
10: weed control effect (activity level), Veronica polita (Veronica polita; dose 1000 g/ha) | weed control effect (activity level), Chenopodiaceae (Chenopodiaceae; dose 1000 g/ha) | weed control effect (activity level), Rorippa indica (Rorippa indica; dose 1000 g/ha) | weed control effect (activity level), Amaranthus retroflexus (Amaranthus retroflexus; dose 1000 g/ha)

O=C(CCCBr)Oc1cc(C(F)(F)F)nnc1-c1ccc(F)c(F)c1 [Compound 1-23]
10: weed control effect, Veronica polita (activity level) (Veronica polita; Dose 3000 g/ha) | weed control effect, Chenopodiaceae (activity level) (Chenopodiaceae; Dose 3000 g/ha) | weed control effect, Rorippa indica (activity level) (Rorippa indica; Dose 3000 g/ha) | weed control effect, Amaranthus retroflexus (activity level) (Amaranthus retroflexus; Dose 3000 g/ha)

Cc1ccc(Cl)c(-c2nnc(C(F)(F)F)cc2O)c1F [Compound 82]
10: weed control effect (activity level), Veronica polita (Veronica polita; dose 1000 g/ha) | weed control effect (activity level), Chenopodiaceae (Chenopodiaceae; dose 1000 g/ha) | weed control effect (activity level), Rorippa indica (Rorippa indica; dose 1000 g/ha) | weed control effect (activity level), Amaranthus retroflexus (Amaranthus retroflexus; dose 1000 g/ha)

Oc1cc(C(F)(F)F)nnc1-c1cc(F)ccc1F [Compound 34]
10: weed control effect (activity level), Veronica polita (Veronica polita; dose 1000 g/ha) | weed control effect (activity level), Chenopodiaceae (Chenopodiaceae; dose 1000 g/ha) | weed control effect (activity level), Rorippa indica (Rorippa indica; dose 1000 g/ha) | weed control effect (activity level), Amaranthus retroflexus (Amaranthus retroflexus; dose 1000 g/ha)

CC(=O)c1cccc(S(=O)(=O)Oc2cc(C(F)(F)F)nnc2-c2ccccc2)c1 [Compound 1-140]
10: weed control effect, Veronica polita (activity level) (Veronica polita; Dose 3000 g/ha) | weed control effect, Chenopodiaceae (activity level) (Chenopodiaceae; Dose 3000 g/ha) | weed control effect, Rorippa indica (activity level) (Rorippa indica; Dose 3000 g/ha) | weed control effect, Amaranthus retroflexus (activity level) (Amaranthus retroflexus; Dose 3000 g/ha)

CCc1cc(-c2nnc(C(F)(F)F)cc2O)n(C)n1 [Compound 780]
10: weed control effect (activity level), Veronica polita (Veronica polita; Dose 3000 g/ha) | weed control effect (activity level), Chenopodiaceae (Chenopodiaceae; Dose 3000 g/ha) | weed control effect (activity level), Rorippa indica (Rorippa indica; Dose 3000 g/ha) | weed control effect (activity level), Amaranthus retroflexus (Amaranthus retroflexus; Dose 3000 g/ha)

CC(=O)Oc1ccccc1C(=O)Oc1cc(C(F)(F)F)nnc1-c1ccccc1 [Compound 1-87]
10: weed control effect, Veronica polita (activity level) (Veronica polita; Dose 3000 g/ha) | weed control effect, Chenopodiaceae (activity level) (Chenopodiaceae; Dose 3000 g/ha) | weed control effect, Rorippa indica (activity level) (Rorippa indica; Dose 3000 g/ha) | weed control effect, Amaranthus retroflexus (activity level) (Amaranthus retroflexus; Dose 3000 g/ha)

N#Cc1cncc(-c2nnc(C(F)(F)F)cc2O)c1 [Compound 984]
10: weed control effect (activity level), Veronica polita (Veronica polita; Dose 3000 g/ha) | weed control effect (activity level), Chenopodiaceae (Chenopodiaceae; Dose 3000 g/ha) | weed control effect (activity level), Rorippa indica (Rorippa indica; Dose 3000 g/ha) | weed control effect (activity level), Amaranthus retroflexus (Amaranthus retroflexus; Dose 3000 g/ha)
